Assay results as given in patent US20160130278A1 (TAISHO PHARMACEUTICAL CO., LTD, priority 2013, published 2016).
pIC50: −log10 of the molar value.

target: T1, human type 1 glycine transporter (GlyT1) (Homo sapiens, UniProt P48067); experiment: Glycine uptake inhibition experiment ([3H]glycine uptake); type: cell-based; details: GlyT1
T1 construct: T98G cells (glioma cells) expressing human type 1 glycine transporter (GlyT1) were used
T1 sequence (P48067 1-706): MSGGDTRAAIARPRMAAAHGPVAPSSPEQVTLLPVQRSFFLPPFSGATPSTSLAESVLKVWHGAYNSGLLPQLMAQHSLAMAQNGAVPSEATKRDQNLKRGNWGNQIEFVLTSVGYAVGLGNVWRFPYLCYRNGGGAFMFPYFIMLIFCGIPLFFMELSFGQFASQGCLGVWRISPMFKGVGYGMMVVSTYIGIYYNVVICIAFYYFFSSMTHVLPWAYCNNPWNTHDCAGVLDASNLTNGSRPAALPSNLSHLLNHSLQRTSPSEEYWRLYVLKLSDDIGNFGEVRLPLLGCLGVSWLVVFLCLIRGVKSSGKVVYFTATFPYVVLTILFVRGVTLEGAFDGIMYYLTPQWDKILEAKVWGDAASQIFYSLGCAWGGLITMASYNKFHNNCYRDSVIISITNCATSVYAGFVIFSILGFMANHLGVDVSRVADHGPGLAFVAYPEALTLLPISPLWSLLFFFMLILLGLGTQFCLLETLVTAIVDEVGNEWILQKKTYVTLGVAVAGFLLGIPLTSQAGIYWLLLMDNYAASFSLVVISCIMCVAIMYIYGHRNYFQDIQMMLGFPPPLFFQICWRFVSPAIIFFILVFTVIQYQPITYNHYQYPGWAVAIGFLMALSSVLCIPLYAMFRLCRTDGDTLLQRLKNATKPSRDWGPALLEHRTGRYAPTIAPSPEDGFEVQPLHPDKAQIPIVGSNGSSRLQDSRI
In short: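 T98G glioma cells expressing human GlyT1 were pretreated 10 min with compound in HEPES buffer pH 7.4 (0.2% BSA), then incubated with compound plus 250 nM final [3H]glycine for 15 min at room temperature. Intracellular radioactivity was counted after NaOH lysis; 10 μM ALX5407 defined non-specific uptake. IC50 came from 10^−9–10^−5 M curves.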

SMILES | pIC50
O=C(NC(c1cccc(F)c1Cl)[C@]1(O)CC[C@@H](F)CC1)c1cc(Cl)cc(Cl)c1 (single isomer, unassigned) [Compound 253, 3,5-dichloro-N-[(2-chloro-3-fluorophenyl)(cis-4-fluoro-1-hydroxycyclohexyl)methyl]benzamide] | 5.08
O=C(NC(c1cc(Cl)ccn1)[C@]1(O)CC[C@@H](F)CC1)c1cc(C(F)(F)F)ncc1Cl (single isomer, unassigned) [Compound 333, 5-chloro-N-[(4-chloropyridin-2-yl)(cis-4-fluoro-1-hydroxycyclohexyl)methyl]-2-(trifluoromethyl)pyridine-4-carboxamide] | 5.77
O=C(NC(c1ccccc1F)C1(O)CCCC1)c1nccc(C(F)(F)F)c1Cl (centres unmarked) [Compound 41, 3-chloro-N-[(2-fluorophenyl)(1-hydroxycyclopentyl)methyl]-4-(trifluoromethyl)pyridine-2-carboxamide] | 6.74
O=C(NC(c1cccc(Cl)c1Cl)C1(O)CCCC1)c1nccc(C(F)(F)F)c1Cl (single isomer, unassigned) [Compound 117, 3-chloro-N-[(2,3-dichlorophenyl)(1-hydroxycyclopentyl)methyl]-4-(trifluoromethyl)pyridine-2-carboxamide] | 7.54
O=C(NC(c1cccc(F)c1Cl)[C@]1(O)CC[C@@H](F)CC1)c1cnc(Cl)cc1-n1nccn1 (single isomer, unassigned) [Compound 369, 6-chloro-N-[(2-chloro-3-fluorophenyl)(cis-4-fluoro-1-hydroxycyclohexyl)methyl]-4-(2H-1,2,3-triazol-2-yl)pyridine-3-carboxamide] | 5.92
O=C(NC(c1cccnc1Cl)C1(O)CCC(F)(F)CC1)c1ccc(C(F)(F)F)nc1Cl (single isomer, unassigned) [Compound 344, 2-chloro-N-[(2-chloropyridin-3-yl)(4,4-difluroo-1-hydroxycyclohexyl)methyl]-6-(trifluoromethyl)pyridine-3-carboxamide] | 5.64
CCn1cc(-c2cccc(C(NC(=O)c3ccc(F)cc3C(F)(F)F)C3(O)CCC(F)(F)CC3)c2)cn1 (single isomer, unassigned) [Compound 216, N-{(4,4-difluoro-1-hydroxycyclohexyl)[3-(1-ethyl-1H-pyrazol-4-yl)phenyl]methyl}-4-fluoro-2-(trifluoromethyl)benzamide] | 5.26
O=C(N[C@@H](c1cccc(Br)c1)C1(O)CCCC1)c1nccc(C(F)(F)F)c1-n1cccn1 [Compound 69, N-[(S)-(3-bromophenyl)(1-hydroxycyclopentyl)methyl]-3-(1H-pyrazol-1-yl)-4-(trifluoromethyl)pyridine-2-carboxamide] | 5.85
CCn1cc(-c2cccc(C(NC(=O)c3cc(Cl)ccc3C(F)(F)F)C3(O)CCC(F)(F)CC3)c2)cn1 (single isomer, unassigned) [Compound 217, 5-chloro-N-{(4,4-difluoro-1-hydroxycyclohexyl)[3-(1-ethyl-1H-pyrazol-4-yl)phenyl]methyl}-2-(trifluoromethyl)benzamide] | 6.24
O=C(N[C@@H](c1cccc(Br)c1)C1(O)CCCC1)c1nccc(C(F)(F)F)c1-n1nccn1 [Compound 70, N-[(S)-(3-bromophenyl)(1-hydroxycyclopentyl)methyl]-3-(2H-1,2,3-triazol-2-yl)-4-(trifluoromethyl)pyridine-2-carboxamide] | 5.92
O=C(NC(c1ccc(F)cc1Cl)C1(O)CCCC1)c1nccc(C(F)(F)F)c1Cl (single isomer, unassigned) [Compound 99, 3-chloro-N-[(2-chloro-4-fluorophenyl)(1-hydroxycyclopentyl)methyl]-4-(trifluoromethyl)pyridine-2-carboxamide] | 5.28

Continued by rising pIC50, values first:

pIC50 | SMILES
5.21 | O=C(N[C@H](c1cccc(Br)c1)[C@]1(O)CC[C@@H](F)CC1)c1nccc(C(F)(F)F)c1Cl [Compound 109, N-[(R)-(3-bromophenyl)(cis-4-fluoro-1-hydroxycyclohexyl)methyl]-3-chloro-4-(trifluoromethyl)pyridine-2-carboxamide]
5.26 | O=C(NC(c1cccc(F)c1Cl)[C@]1(O)CC[C@@H](F)CC1)c1nccnc1Cl (single isomer, unassigned) [Compound 302, 3-chloro-N-[(2-chloro-3-fluorophenyl)(cis-4-fluoro-1-hydroxycyclohexyl)methyl]pyrazine-2-carboxamide]
5.48 | CCn1cc(-c2cccc(C(NC(=O)c3cccc(C)c3Cl)C3(O)CCC(F)(F)CC3)c2)cn1 (single isomer, unassigned) [Compound 151, 2-chloro-N-{(4,4-difluoro-1-hydroxycyclohexyl)[3-(1-ethyl-1H-pyrazol-4-yl)phenyl]methyl}-3-methylbenzamide]
5.89 | O=C(NC(c1cccc(F)c1Cl)[C@]1(O)CC[C@@H](F)CC1)c1ccc(F)cc1Cl (single isomer, unassigned) [Compound 307, 2-chloro-N-[(2-chloro-3-fluorophenyl)(cis-4-fluoro-1-hydroxycyclohexyl)methyl]-4-fluorobenzamide]
5.96 | O=C(NC(c1cccc(F)c1Cl)[C@]1(O)CC[C@@H](F)CC1)c1c(F)cccc1Cl (single isomer, unassigned) [Compound 301, 2-chloro-N-[(2-chloro-3-fluorophenyl)(cis-4-fluoro-1-hydroxycyclohexyl)methyl]-6-fluorobenzamide]
5.96 | O=C(NC(c1cccnc1Cl)[C@]1(O)CC[C@@H](F)CC1)c1nccc2ccccc12 (single isomer, unassigned) [Compound 326, N-[(2-chloropyridin-3-yl)(cis-4-fluoro-1-hydroxycyclohexyl)methyl]isoquinoline-1-carboxamide]
6.00 | O=C(NC(c1cccc(F)c1Cl)[C@]1(O)CC[C@@H](F)CC1)c1cccc(C(F)(F)F)c1F (single isomer, unassigned) [Compound 245, N-[(2-chloro-3-flurophenyl)(cis-4-fluoro-1-hydroxycyclohexyl)methyl]-2-fluoro-3-(trifluoromethyl)benzamide]
6.05 | O=C(NC(c1cccc(F)c1Cl)[C@]1(O)CC[C@@H](F)CC1)c1cccc(Cl)c1C(F)(F)F (single isomer, unassigned) [Compound 312, 3-chloro-N-[(2-chloro-3-fluorophenyl)(cis-4-fluoro-1-hydroxycyclohexyl)methyl]-2-(trifluoromethyl)benzamide]
6.08 | CCn1cc(-c2cccc(C(NC(=O)c3nccc(C(F)(F)F)c3Cl)C3(O)CCCC3)c2)cn1 (single isomer, unassigned) [Compound 13, 3-chloro-N-{[3-(1-ethyl-1H-pyrazol-4-yl)phenyl](1-hydroxycyclopentyl)methyl}-4-(trilfuoromethyl)pyridine-2-carboxamide]
6.31 | O=C(NC(c1cc(Cl)ccn1)C1(O)CCC(F)(F)CC1)c1cc(C(F)(F)F)ncc1Cl (single isomer, unassigned) [Compound 348, 5-chloro-N-[(4-chloropyridin-2-yl)(4,4-difluoro-1-hydroxycyclohexyl)methyl]-2-(trifluoromethyl)pyridine-4-carboxamide]
6.49 | O=C(NC(c1cccc(Br)c1)C1(O)CCC(F)(F)CC1)c1nccc(C(F)(F)F)c1Cl (centres unmarked) [Compound 85, N-[(3-bromophenyl)(4,4-difluoro-1-hydroxycyclohexyl)methyl]-3-chloro-4-(trifluoromethyl)pyridine-2-carboxamide]
6.96 | O=C(NC(c1cccc(F)c1)C1(O)CCCC1)c1nccc(C(F)(F)F)c1Cl (centres unmarked) [Compound 40, 3-chloro-N-[(3-fluorophenyl)(1-hydroxycyclopentyl)methyl]-4-(trifluoromethyl)pyridine-2-carboxamide]
7.00 | O=C(NC(c1cccc(F)c1Cl)[C@]1(O)CC[C@@H](F)CC1)c1cccc(C(F)(F)F)c1Cl (single isomer, unassigned) [Compound 246, 2-chloro-N-[(2-chloro-3-fluorophenyl)(cis-4-fluoro-1-hydroxycyclohexyl)methyl]-3-(trifluoromethyl)benzamide]
7.37 | CCn1cc(-c2cccc([C@H](NC(=O)c3cccc(C(F)(F)F)c3Cl)C3(O)CCCC3)c2)cn1 [Compound 74, 2-chloro-N-[(S)-[3-(1-ethyl-1H-pyrazol-4-yl)phenyl](1-hydroxycyclopentyl)methyl]-3-(trifluoromethyl)benzamide]
7.42 | O=C(NC(c1cccc(Br)c1)C1(O)CCCCC1)c1nccc(C(F)(F)F)c1Cl (single isomer, unassigned) [Compound 42, N-[(3-bromophenyl)(1-hydroxycyclohexyl)methyl]-3-chloro-4-(trilfuoromethyl)pyridine-2-carboxamide]
